Experimental data from patent US20090264415A2 (priority 2004, published 2009).

Test system: peripheral blood mononuclear cells (PBMC) stimulated with allogeneic PBMC or EBV-transformed human B cells (RPMI1788)
Assay: Mixed lymphocyte reaction (MLR) assay
Assay type: cell-based
Settings: Homo sapiens, RPMI-1788; MLR assay of example 319; read-out: MLR IC50
Description: Pyrido[3,2-d]pyrimidine derivatives were first dissolved (10 mM) in dimethyl-sulfoxide (hereinafter referred as DMSO) and further diluted in culture medium before use for the following in vitro experiments. […] Some pyrido[3,2-d]pyrimidine derivatives described herein were tested in the following mixed lymphocyte reaction (MLR) assay.
Peripheral blood mononuclear cells (hereinafter referred as PBMC) were isolated from heparinized peripheral blood by density gradient centrifugation over Lymphoprep (Nycomed, Maorstua, Norway). Allogeneic PBMC or Eppstein-Barr Virus-transformed human B cells [commercially available under the trade name RPM11788 (ATCC name CCL156)] which strongly express B7-1 and B7-2 antigens were used as stimulator cells after irradiation with 30 Gy. MLR was performed in triplicate wells. After 5 days incubation at 37° C., 1 μCi [^3H]-thymidine was added to each cup. After a further 16 hours incubation, cells were harvested and counted in a β-counter. Inhibition of proliferation by a compound described in some of the present examples was counted while using the formula: [formula] wherein cpm is the thymidine count per minute. The MLR assay is regarded by those skilled in the art as an in vitro analogue of the transplant rejection since it is based on the recognition of allogeneic major histocompatibility antigens on the stimulator leukocytes, by responding lymphocytes.

| SMILES | IC50 [µM] |
| --- | --- |
| Nc1nc(N2CCN(C(=O)COc3ccc(Cl)cc3)CC2)c2nc(-c3ccc4[nH]ccc4c3)ccc2n1 [Example 412, 2-amino-4-[4-(4-chlorophenoxyacetyl)piperazin-1-yl]-6-(indol-5-yl)pyrido-[3,2-d]pyrimidine] | 0.039 |
| Nc1nc(N2CCN(C(=O)COc3ccc(Cl)cc3)CC2)c2nc(-c3ccc(C(=O)O)s3)ccc2n1 [Example 413, 2-amino-4-[4-(4-chlorophenoxyacetyl)piperazin-1-yl]-6-(2-carboxythiophen-5-yl)pyrido-[3,2-d]pyrimidine] | > 10 |
| N#Cc1cccc(-c2ccc3nc(N)nc(N4CCN(C(=O)COc5ccc(Cl)cc5)CC4)c3n2)c1 [Example 414, 2-amino-4-[4-(4-chlorophenoxyacetyl)piperazin-1-yl]-6-(3-cyanophenyl)pyrido-[3,2-d]pyrimidine] | 0.02 |
| Nc1nc(N2CCN(C(=O)COc3ccc(Cl)cc3)CC2)c2nc(-c3ccc(O)cc3)ccc2n1 [Example 415, 2-amino-4-[4-(4-chlorophenoxyacetyl)piperazin-1-yl]-6-(4-hydroxyphenyl)pyrido-[3,2-d]pyrimidine] | 0.006 |
| N#Cc1ccccc1-c1ccc2nc(N)nc(N3CCN(C(=O)COc4ccc(Cl)cc4)CC3)c2n1 [Example 416, 2-amino-4-[4-(4-chlorophenoxyacetyl)piperazin-1-yl]-6-(2-cyanophenyl)pyrido-[3,2-d]pyrimidine] | 0.012 |
| CS(=O)(=O)c1ccc(-c2ccc3nc(N)nc(N4CCN(C(=O)COc5ccc(Cl)cc5)CC4)c3n2)cc1 [Example 417, 2-amino-4-[4-(4-chlorophenoxyacetyl)piperazin-1-yl]-6-(4-(methanesulfonyl)-phenyl)pyrido-[3,2-d]pyrimidine] | 0.028 |
| COc1cccc(-c2ccc3nc(N)nc(N4CCN(C(=O)COc5ccc(Cl)cc5)CC4)c3n2)c1 [Example 418, 2-amino-4-[4-(4-chlorophenoxyacetyl)piperazin-1-yl]-6-(3-methoxyphenyl)pyrido-[3,2-d]pyrimidine] | 0.057 |
| Nc1cccc(-c2ccc3nc(N)nc(N4CCN(C(=O)COc5ccc(Cl)cc5)CC4)c3n2)c1 [Example 419, 2-amino-4-[4-(4-chlorophenoxyacetyl)piperazin-1-yl]-6-(3-aminophenyl)pyrido-[3,2-d]pyrimidine] | 0.02 |
| Cc1cc(-c2ccc3nc(N)nc(N4CCN(C(=O)COc5ccc(Cl)cc5)CC4)c3n2)ccc1F [Example 420, 2-amino-4-[4-(4-chlorophenoxyacetyl)piperazin-1-yl]-6-(4-fluoro-3-methylphenyl)-pyrido-[3,2-d]pyrimidine] | 0.3 |
| Nc1nc(N2CCN(C(=O)COc3ccc(Cl)cc3)CC2)c2nc(-c3ccccc3)ccc2n1 [Example 421, 2-amino-4-[4-(4-chlorophenoxyacetyl)piperazin-1-yl]-6-phenylpyrido-[3,2-d]pyrimidine] | 0.049 |
| COc1ccccc1-c1ccc2nc(N)nc(N3CCN(C(=O)COc4ccc(Cl)cc4)CC3)c2n1 [Example 422, 2-amino-4-[4-(4-chlorophenoxyacetyl)piperazin-1-yl]-6-(2-methoxyphenyl)pyrido-[3,2-d]pyrimidine] | 0.1 |
| Nc1nc(N2CCN(C(=O)COc3ccc(Cl)cc3)CC2)c2nc(-c3ccc(F)cc3F)ccc2n1 [Example 423, 2-amino-4-[4-(4-chlorophenoxyacetyl)piperazin-1-yl]-6-(2,4-difluorophenzyl)pyrido-[3,2-d]pyrimidine] | 0.1 |
| Nc1nc(N2CCN(C(=O)COc3ccc(Cl)cc3)CC2)c2nc(-c3ccccc3F)ccc2n1 [Example 424, 2-amino-4-[4-(4-chlorophenoxyacetyl)piperazin-1-yl]-6-(2-fluorophenyl)pyrido-[3,2-d]pyrimidine] | 0.11 |
| Nc1nc(N2CCN(C(=O)COc3ccc(Cl)cc3)CC2)c2nc(-c3cccc(Cl)c3Cl)ccc2n1 [Example 425, 2-amino-4-[4-(4-chlorophenoxyacetyl)piperazin-1-yl]-6-(2,3-dichlorophenyl)-pyrido-[3,2-d]pyrimidine] | 0.3 |
| COc1ccc(-c2ccc3nc(N)nc(N4CCN(C(=O)COc5ccc(Cl)cc5)CC4)c3n2)cc1 [Example 426, 2-amino-4-[4-(4-chlorophenoxyacetyl)piperazin-1-yl]-6-(4-methoxyphenyl)pyrido-[3,2-d]pyrimidine] | 0.03 |
| Nc1nc(N2CCN(C(=O)COc3ccc(Cl)cc3)CC2)c2nc(-c3ccc(Cl)cc3Cl)ccc2n1 [Example 427, 2-amino-4-[4-(4-chlorophenoxyacetyl)piperazin-1-yl]-6-(2,4-dichlorophenyl)-pyrido-[3,2-d]pyrimidine] | 0.3 |

| SMILES | IC50 [µM] |
| --- | --- |
| Nc1nc(N2CCN(C(=O)COc3ccc(Cl)cc3)CC2)c2nc(-c3c(F)cccc3F)ccc2n1 [Example 428, 2-amino-4-[4-(4-chlorophenoxyacetyl)piperazin-1-yl]-6-(2,6-difluorophenyl)pyrido-[3,2-d]pyrimidine] | 0.3 |
| Nc1nc(N2CCN(C(=O)COc3ccc(Cl)cc3)CC2)c2nc(-c3cc(Cl)ccc3Cl)ccc2n1 [Example 429, 2-amino-4-[4-(4-chlorophenoxyacetyl)piperazin-1-yl]-6-(2,5-dichlorophenyl)-pyrido-[3,2-d]pyrimidine] | 0.5 |
| Nc1nc(N2CCN(C(=O)COc3ccc(Cl)cc3)CC2)c2nc(-c3ccccc3Cl)ccc2n1 [Example 430, 2-amino-4-[4-(4-chlorophenoxyacetyl)piperazin-1-yl]-6-(2-chlorophenyl)pyrido-[3,2-d]pyrimidine] | 0.04 |
| Nc1nc(N2CCN(C(=O)COc3ccc(Cl)cc3)CC2)c2nc(-c3cc(Cl)ccc3F)ccc2n1 [Example 431, 2-amino-4-[4-(4-chlorophenoxyacetyl)piperazin-1-yl]-6-(5-chloro-2-fluorophenyl)-pyrido-[3,2-d]pyrimidine] | 0.33 |
| Nc1nc(N2CCN(C(=O)COc3ccc(Cl)cc3)CC2)c2nc(-c3cc(F)c(F)c(F)c3)ccc2n1 [Example 432, 2-amino-4-[4-(4-chlorophenoxyacetyl)piperazin-1-yl]-6-(3,4,5-trifluorophenyl)-pyrido-[3,2-d]pyrimidine] | 0.09 |
| Cc1cccc(C)c1-c1ccc2nc(N)nc(N3CCN(C(=O)COc4ccc(Cl)cc4)CC3)c2n1 [Example 433, 2-amino-4-[4-(4-chlorophenoxyacetyl)piperazin-1-yl]-6-(2,6-dimethylphenyl)-pyrido-[3,2-d]pyrimidine] | 3.6 |
| CC(C)(C)OC(=O)NCC(=O)N1CCN(c2nc(N)nc3ccc(-c4ccc(F)cc4)nc23)CC1 [Example 434, 2-amino-4-{4-[N-(tert-butoxycarbonyl)-glycyl]-piperazin-1-yl}-6-(4-fluorophenyl)-pyrido[3,2-d]pyrimidine] | 0.093 |
| CS(=O)(=O)Nc1cccc(-c2ccc3nc(N)nc(N4CCN(C(=O)COc5ccc(Cl)cc5)CC4)c3n2)c1 [Example 435, 2-amino-4-[4-(4-chlorophenoxyacetyl)piperazin-1-yl]-6-[N-3-(methanesulfonamidophenyl)]-pyrido-[3,2-d]pyrimidine] | 0.006 |
| Nc1nc(N2CCN(C(=O)CO)CC2)c2nc(-c3ccc(F)cc3)ccc2n1 [Example 437, 2-amino-4-[4-(2-hydroxyacetyl)piperazin-1-yl]-6-(4-fluorophenyl)-pyrido[3,2-d]pyrimidine] | 1.6 |
| Nc1nc(N2CCN(C(=O)COc3ccc(Cl)cc3)CC2)c2nc(-c3c(Cl)cccc3Cl)ccc2n1 [Example 438, 2-amino-4-[4-(4-chlorophenoxyacetyl)piperazin-1-yl]-6-(2,6-dichlorophenyl)-pyrido-[3,2-d]pyrimidine] | 0.7 |
| Nc1nc(N2CCN(C(=O)COc3ccc(Cl)cc3)CC2)c2nc(-c3ccc(OC(F)(F)F)cc3)ccc2n1 [Example 439, 2-amino-4-[4-(4-chlorophenoxyacetyl)piperazin-1-yl]-6-(4-trifluoromethoxyphenyl)-pyrido-[3,2-d]pyrimidine] | 0.3 |
| Nc1nc(N2CCN(C(=O)COc3ccc(Cl)cc3)CC2)c2nc(-c3cc(F)ccc3F)ccc2n1 [Example 440, 2-amino-4-[4-(4-chlorophenoxyacetyl)piperazin-1-yl]-6-(2,5-difluorophenyl)pyrido-[3,2-d]pyrimidine] | 0.07 |
| Nc1nc(N2CCN(C(=O)COc3ccc(Cl)cc3)CC2)c2nc(-c3ccc(CO)cc3)ccc2n1 [Example 441, 2-amino-4-[4-(4-chlorophenoxyacetyl)piperazin-1-yl]-6-[4-(hydroxymethyl)phenyl]pyrido-[3,2-d]pyrimidine] | 0.008 |
| Nc1nc(N2CCN(C(=O)COc3ccc(Cl)cc3)CC2)c2nc(-c3c(F)cccc3Cl)ccc2n1 [Example 442, 2-amino-4-[4-(4-chlorophenoxyacetyl)piperazin-1-yl]-6-(2-chloro-6-fluorophenyl)-pyrido-[3,2-d]pyrimidine] | 0.3 |
| CNC(=O)c1ccc(-c2ccc3nc(N)nc(N4CCN(C(=O)COc5ccc(Cl)cc5)CC4)c3n2)cc1 [Example 443, 2-amino-4-[4-(4-chlorophenoxyacetyl)piperazin-1-yl]-6-[4-(methylaminocarbonyl)phenyl]-pyrido-[3,2-d]pyrimidine] | 0.007 |
| NCC(=O)N1CCN(c2nc(N)nc3ccc(-c4ccc(F)cc4)nc23)CC1 [Example 444, 2-amino-4-[4-(aminoacetyl)-piperazin-1-yl]-6-(4-fluorophenyl)-pyrido[3,2-d]pyrimidine] | 2.3 |
